The test system of test [1] is BXPC-3 pancreas cancer cell line. In words: Sulforhodamine B cancer cell growth inhibition, BXPC-3. The class given is cell-based, human. To be noted: 48 hours. On the procedure:
(§1) Inhibition of human cancer cell growth was assessed using the National Cancer Institute's standard sulforhodamine B assay as previously described. Briefly, cells in a 5% fetal bovine serum/RPMI1640 medium solution were inoculated in 96-well plates and incubated for 24 hours Serial dilutions of the compounds were then added. After 48 hours, the plates were fixed with trichloroacetic acid, stained with sulforhodamine B and read with an automated microplate reader. A growth inhibition of 50% (GI50 of the drug concentration causing a 50% reduction in the net protein increase) was calculated from optical density data with Immunosoft software. Inhibition of the mouse leukemia P388 cells was assessed in a 10% horse serum/Fisher medium solution for 24 hours, followed by a 48 hour incubation with serial dilutions of the compounds. Cell growth inhibition (ED50) was then calculated using a Z1 Beckman/Coulter particle counter. (Monks, A., et al., Feasibility of high-flux anticancer screen using a diverse panel of cultured human tumor cell lines, J Natl. Cancer Inst. 1991, 83, 757-766.)

The subject of test [2] is SF268 CNS cancer cell line. The test is described as follows: Sulforhodamine B cancer cell growth inhibition, SF268. The class given is cell-based, human. To be noted: 48 hours. On the procedure: as §1
Test [3] relates to HUVEC (human umbilical vascular endothelial cells). The test is described as follows: Growth inhibition of normal endothelial cells (HUVEC). The class given is cell-based.
Test [4] deals with Neisseria gonorrhoeae ATCC 49226. The test is described as follows: Broth microdilution antibacterial susceptibility. The class given is cell-based. How it is done:
(§2) Ircinastatin A (1) was evaluated against the bacteria Stenotrophomonas maltophilia ATCC 13637, Micrococcus luteus Presque Isle 456, Staphylococcus aureus ATCC 29213, Escherichia coli ATCC 25922, Enterobacter cloacae ATCC 13047, Enterococcus faecalis ATCC 29212, Streptococcus pneumoniae ATCC 6303 and Neisseria gonorrhoeae ATCC 49226, and the fungi Candida albicans ATCC 90028 and Cryptococcus neoformans ATCC 90112, following established broth microdilution susceptibility assays. The minimum inhibitory concentration was defined as the lowest concentration of irciniastatin A that inhibited all visible growth of the test organism (optically clear). Assays were repeated on separate days. (National Committee for Clinical Laboratory Standards. Methods for Dilution Antimicrobial Susceptibility Tests for Bacteria that Grow Aerobically. Approved Standard M7-A5. Wayne, Pa.: NCCLS, 2000; National Committee for Clinical Laboratory Standards. Reference Method for Broth Dilution Antifungal Susceptibility Testing of Yeasts. Approved Standard M27-A. Wayne, Pa.: NCCLS, 1997.)

In test [5] the test system is P388 lymphocytic leukemia cells. In words: Inhibition of mouse leukemia P388 cell growth. The class given is cell-based. To be noted: P388 murine leukemia, in Table 2. How it is done: as §1
Test [6] relates to Cryptococcus neoformans ATCC 90112. In words: Broth microdilution antifungal susceptibility. The class given is cell-based. How it is done:
as §2

Test [7] relates to NCI-H460 lung cancer cell line. The test is described as follows: Sulforhodamine B cancer cell growth inhibition, NCI-H460. The class given is cell-based, human. To be noted: for GI50: NCI-H460 lung, 48 hours. How it is done: as §1
For test [8], the system named is MCF-7 breast cancer cell line. In words: Sulforhodamine B cancer cell growth inhibition, MCF-7. The class given is cell-based, human. To be noted: 48 hours. On the procedure:
as §1

Test [9] relates to DU-145 prostate cancer cell line. The test is described as follows: Sulforhodamine B cancer cell growth inhibition, DU-145. The class given is cell-based, human. To be noted: 48 hours. How it is done: as §1
The subject of test [10] is KM20L2 colon cancer cell line. In words: Sulforhodamine B cancer cell growth inhibition, KM20L2. The class given is cell-based, human. To be noted: 48 hours. On the procedure: as §1
The test system of test [11] is murine P388 leukemia cell line and six human cancer cell lines. In words: Cancer cell growth inhibition, P388 plus minipanel of human cancer cell lines (summary). The class given is cell-based. To be noted: against P388, BXPC-3, MCF-7 and SF268. On the procedure: as §1

Values after ≈ are worked out from the molar mass of the structure shown. Bounds are passed on as bounds.

The GI50 is the concentration that inhibits growth by half. Higher therefore signals less potent growth inhibition. In the case of `C=C(C)CC(OC)[C@H](O)C(=O)N[C@@H](OC)[C@@H]1C[C@@H](O)C(C)(C)[C@@H](C[C@H](O)[C@@H](C)[C@H]2Cc3c(C)c(O)cc(O)c3C(=O)O2)O1` (stereo partly shown) [Irciniastatin A, irciniastatin A], the 50% growth inhibitory concentration (GI50) in [1] is 3.8 ng/mL (≈ 6.23 nM); in [2], 3.4 ng/mL (≈ 5.58 nM); in test [3] it was less than 0.5 ng/mL; in test [5], 4.13 ng/mL (≈ 6.77 nM); in test [7], less than 0.1 ng/mL; in [8], 3.2 ng/mL (≈ 5.25 nM). The GI50 in test [9] was determined as 2.4 ng/mL (≈ 3.94 nM); in test [10], 2.7 ng/mL (≈ 4.43 nM). For the same molecule, the results for the minimum inhibitory concentration in test [4] and in test [6] were 64000 ng/mL (≈ 105000 nM) and 16000 ng/mL (≈ 26200 nM), respectively. Moreover, the “activity of irciniastatin A relative to irciniastatin B” value in [7] (NCI-H460 lung cancer cells) was “at least 10 times”.

With `C=C(C)C[C@H](OC)[C@H](O)C(=O)N[C@@H](OC)[C@@H]1CC(=O)C(C)(C)[C@@H](C[C@H](O)[C@@H](C)[C@H]2Cc3c(C)c(O)cc(O)c3C(=O)O2)O1` [Irciniastatin B, irciniastatin B], the GI50 in [1] worked out at 0.73 ng/mL (≈ 1.2 nM); in test [2], 0.66 ng/mL (≈ 1.09 nM); in test [5], 6 ng/mL (≈ 9.87 nM); in test [7], 1.2 ng/mL (≈ 1.97 nM); in test [8], 0.5 ng/mL (≈ 0.823 nM); in [9], 1.6 ng/mL (≈ 2.63 nM). Besides, the GI50 in test [10] was found to be 2.1 ng/mL (≈ 3.46 nM). Moreover, the “cell growth inhibition of irciniastatin B (2) relative to irciniastatin A (1)” value in test [11] is “ten times stronger”.

For the origin of these results see patent US7439265B2, “Irciniastatins a and b” (Arizona Board of Regents, a body corporate of the State of …, priority 2003, dated 2008).
